Measurements: ChEMBL document CHEMBL1201862, “PubChem BioAssay data set” (2004)
Calls of active or inactive are those of the source.

Key:
Protein RecA = target: T1, Protein RecA (Mycobacterium tuberculosis, UniProt P9WHJ3); experiment: Fluorescence Cell-Free Homogeneous Dose Retest to Identify Inhibitors of RecA-Intein Splicing Activity. [Related pubchem assays (depositor defined):AID2097, AID2223, AID489010, AID492950]; type: functional
T1 sequence (P9WHJ3 whole entry): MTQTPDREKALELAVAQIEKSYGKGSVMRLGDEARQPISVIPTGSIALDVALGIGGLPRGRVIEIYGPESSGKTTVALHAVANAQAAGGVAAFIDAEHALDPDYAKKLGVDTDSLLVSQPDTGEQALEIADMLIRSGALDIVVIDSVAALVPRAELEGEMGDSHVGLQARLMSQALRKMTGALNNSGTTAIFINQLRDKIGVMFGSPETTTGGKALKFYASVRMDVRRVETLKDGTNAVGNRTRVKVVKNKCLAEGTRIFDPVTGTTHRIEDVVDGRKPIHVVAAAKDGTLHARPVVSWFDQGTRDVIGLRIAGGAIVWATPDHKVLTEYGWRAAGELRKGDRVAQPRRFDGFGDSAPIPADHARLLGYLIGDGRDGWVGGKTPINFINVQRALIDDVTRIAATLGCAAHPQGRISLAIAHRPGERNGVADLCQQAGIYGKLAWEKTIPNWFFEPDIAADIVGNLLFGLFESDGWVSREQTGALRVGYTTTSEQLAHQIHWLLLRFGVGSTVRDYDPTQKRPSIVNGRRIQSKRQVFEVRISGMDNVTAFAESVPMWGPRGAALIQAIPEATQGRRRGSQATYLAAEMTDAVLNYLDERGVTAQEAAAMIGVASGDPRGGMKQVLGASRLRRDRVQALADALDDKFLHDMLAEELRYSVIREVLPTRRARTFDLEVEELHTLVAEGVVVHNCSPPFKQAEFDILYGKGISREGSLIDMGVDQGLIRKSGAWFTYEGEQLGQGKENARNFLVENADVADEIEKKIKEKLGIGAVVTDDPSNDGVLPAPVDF

Saccharomyces cerevisiae = experiment: S. cerevisiae Caspase-1/ASC signal blockers IC50, NALP1 inhibitor project selectivity test (AID 488863); type: functional, organism-based
[1] = Mcl1-dependent cancer cell viability – HMC-1-8 cells, luminescence, dry powder, selectivity assay for A1 inhibitor project, dose response (AID 504415); type: functional, cell-based; settings: Homo sapiens
[2] = target: T2, Replicative DNA helicase DnaB (Mycobacterium tuberculosis, UniProt P9WMR3); experiment: DnaB intein splicing inhibitors, dose response, biochemical, cell-free fluorescence (AID 449749); type: functional
T2 sequence (P9WMR3 whole entry): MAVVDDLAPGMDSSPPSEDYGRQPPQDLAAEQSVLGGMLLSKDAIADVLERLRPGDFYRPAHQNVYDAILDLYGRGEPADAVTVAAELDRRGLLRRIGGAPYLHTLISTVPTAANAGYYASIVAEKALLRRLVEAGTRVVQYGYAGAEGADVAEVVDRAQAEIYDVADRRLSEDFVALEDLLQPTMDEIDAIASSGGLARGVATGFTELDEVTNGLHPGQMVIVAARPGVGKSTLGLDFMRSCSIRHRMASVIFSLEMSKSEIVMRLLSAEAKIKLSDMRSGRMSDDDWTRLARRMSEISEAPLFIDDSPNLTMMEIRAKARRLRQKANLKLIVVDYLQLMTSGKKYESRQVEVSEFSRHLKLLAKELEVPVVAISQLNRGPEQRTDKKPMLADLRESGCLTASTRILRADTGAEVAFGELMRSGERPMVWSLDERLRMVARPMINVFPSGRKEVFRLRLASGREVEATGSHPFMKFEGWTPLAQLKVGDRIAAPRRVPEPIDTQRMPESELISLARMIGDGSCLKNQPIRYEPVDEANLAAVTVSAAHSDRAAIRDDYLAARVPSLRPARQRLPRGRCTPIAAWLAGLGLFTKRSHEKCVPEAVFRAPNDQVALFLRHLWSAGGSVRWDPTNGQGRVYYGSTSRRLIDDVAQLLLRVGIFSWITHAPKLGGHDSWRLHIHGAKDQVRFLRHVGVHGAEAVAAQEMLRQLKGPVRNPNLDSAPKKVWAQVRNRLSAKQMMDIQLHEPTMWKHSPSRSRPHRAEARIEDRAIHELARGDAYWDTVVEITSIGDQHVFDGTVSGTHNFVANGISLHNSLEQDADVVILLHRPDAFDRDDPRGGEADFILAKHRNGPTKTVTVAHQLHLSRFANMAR

[3] = target: T3, NACHT, LRR and PYD domains-containing protein 1 (Homo sapiens, UniProt Q9C000); experiment: NALP1 inhibitors in yeast, dose response, luminescent (AID 488860); type: functional
T3 sequence (Q9C000 whole entry): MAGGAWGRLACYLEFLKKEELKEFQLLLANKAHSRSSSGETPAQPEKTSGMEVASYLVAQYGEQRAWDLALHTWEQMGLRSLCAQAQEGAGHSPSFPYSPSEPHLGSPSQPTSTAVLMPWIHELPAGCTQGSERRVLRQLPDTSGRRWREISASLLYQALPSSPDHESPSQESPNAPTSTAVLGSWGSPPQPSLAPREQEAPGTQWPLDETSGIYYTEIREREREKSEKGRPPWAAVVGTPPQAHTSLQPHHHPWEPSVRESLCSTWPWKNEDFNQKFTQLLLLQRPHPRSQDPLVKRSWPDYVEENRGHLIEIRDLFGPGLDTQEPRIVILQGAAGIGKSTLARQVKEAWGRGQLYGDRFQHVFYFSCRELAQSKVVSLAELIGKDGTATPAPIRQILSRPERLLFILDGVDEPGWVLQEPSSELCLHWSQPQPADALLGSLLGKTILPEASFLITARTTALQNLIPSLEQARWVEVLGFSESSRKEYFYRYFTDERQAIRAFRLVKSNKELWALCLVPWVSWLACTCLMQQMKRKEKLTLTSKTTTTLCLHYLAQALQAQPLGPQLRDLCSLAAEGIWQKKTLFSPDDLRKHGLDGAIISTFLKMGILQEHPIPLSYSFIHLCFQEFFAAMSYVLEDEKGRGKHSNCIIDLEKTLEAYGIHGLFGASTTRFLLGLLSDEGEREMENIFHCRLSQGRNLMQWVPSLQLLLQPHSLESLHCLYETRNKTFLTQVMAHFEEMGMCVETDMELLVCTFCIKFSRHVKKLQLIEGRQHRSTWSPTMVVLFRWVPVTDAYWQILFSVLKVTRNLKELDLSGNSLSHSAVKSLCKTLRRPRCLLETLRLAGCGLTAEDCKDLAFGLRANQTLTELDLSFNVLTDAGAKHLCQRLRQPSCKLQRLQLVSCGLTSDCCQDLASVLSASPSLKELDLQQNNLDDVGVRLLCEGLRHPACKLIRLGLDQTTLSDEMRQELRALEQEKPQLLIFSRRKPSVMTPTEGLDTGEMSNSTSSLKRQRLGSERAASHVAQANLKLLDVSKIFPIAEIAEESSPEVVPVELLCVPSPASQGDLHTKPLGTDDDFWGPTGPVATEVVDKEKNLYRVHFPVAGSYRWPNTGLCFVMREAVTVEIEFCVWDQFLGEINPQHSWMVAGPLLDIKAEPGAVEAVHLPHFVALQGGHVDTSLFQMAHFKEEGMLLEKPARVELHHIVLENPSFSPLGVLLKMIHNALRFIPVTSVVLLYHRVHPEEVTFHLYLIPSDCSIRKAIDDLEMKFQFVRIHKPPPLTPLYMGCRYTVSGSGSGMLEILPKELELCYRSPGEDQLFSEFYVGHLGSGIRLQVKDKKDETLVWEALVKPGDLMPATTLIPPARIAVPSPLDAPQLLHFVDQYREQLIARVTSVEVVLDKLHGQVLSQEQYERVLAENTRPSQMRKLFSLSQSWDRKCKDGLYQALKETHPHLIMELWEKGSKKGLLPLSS

[4] = target: Protein disulfide-isomerase (Homo sapiens, UniProt P07237); experiment: inhibition of PDI-driven insulin aggregation – biochemical, turbidity, absorbance, cherry-picked samples, dose response (AID 602350); type: functional
Sequence of Protein disulfide-isomerase (P07237 whole entry): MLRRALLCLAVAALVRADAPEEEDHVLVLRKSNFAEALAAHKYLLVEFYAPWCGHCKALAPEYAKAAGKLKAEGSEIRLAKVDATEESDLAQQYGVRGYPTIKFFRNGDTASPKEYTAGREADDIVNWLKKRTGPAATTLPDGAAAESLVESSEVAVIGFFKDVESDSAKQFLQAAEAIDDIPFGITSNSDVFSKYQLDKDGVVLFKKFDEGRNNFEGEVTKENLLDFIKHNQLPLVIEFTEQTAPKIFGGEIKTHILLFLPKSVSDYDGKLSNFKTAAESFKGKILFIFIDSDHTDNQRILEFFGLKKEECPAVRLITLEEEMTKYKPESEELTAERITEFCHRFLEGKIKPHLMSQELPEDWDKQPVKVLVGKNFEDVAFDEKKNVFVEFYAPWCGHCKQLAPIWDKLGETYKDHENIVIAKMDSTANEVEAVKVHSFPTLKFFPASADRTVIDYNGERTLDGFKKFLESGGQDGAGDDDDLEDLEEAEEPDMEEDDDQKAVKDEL

[5] = target: DNA dC->dU-editing enzyme APOBEC-3G (Homo sapiens, UniProt Q9HC16); experiment: inhibition of APOBEC3G ssDNA deamination – biochemical, fluorescence, single-stranded DNA substrate, SAR follow-up (AID 602136); type: functional; settings: read-out: IC50_Mean
Sequence of DNA dC->dU-editing enzyme APOBEC-3G (Q9HC16 whole entry): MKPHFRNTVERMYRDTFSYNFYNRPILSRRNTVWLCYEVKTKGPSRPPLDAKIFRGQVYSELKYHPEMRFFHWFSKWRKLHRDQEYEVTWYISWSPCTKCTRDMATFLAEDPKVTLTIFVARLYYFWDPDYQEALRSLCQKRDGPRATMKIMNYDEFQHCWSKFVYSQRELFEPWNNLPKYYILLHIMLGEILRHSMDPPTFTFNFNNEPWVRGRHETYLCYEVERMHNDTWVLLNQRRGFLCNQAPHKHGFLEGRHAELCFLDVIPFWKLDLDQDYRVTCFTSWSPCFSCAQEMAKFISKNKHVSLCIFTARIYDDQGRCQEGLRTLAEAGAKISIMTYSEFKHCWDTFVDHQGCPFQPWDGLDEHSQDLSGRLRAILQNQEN

[6] = target: DNA dC->dU-editing enzyme APOBEC-3A (Homo sapiens, UniProt P31941); experiment: SAR analysis of small molecule inhibitors of APOBEC3A DNA Deaminase via a fluorescence-based single-stranded DNA deaminase assay.; type: functional; settings: read-out: IC50_Mean
Sequence of DNA dC->dU-editing enzyme APOBEC-3A (P31941 whole entry): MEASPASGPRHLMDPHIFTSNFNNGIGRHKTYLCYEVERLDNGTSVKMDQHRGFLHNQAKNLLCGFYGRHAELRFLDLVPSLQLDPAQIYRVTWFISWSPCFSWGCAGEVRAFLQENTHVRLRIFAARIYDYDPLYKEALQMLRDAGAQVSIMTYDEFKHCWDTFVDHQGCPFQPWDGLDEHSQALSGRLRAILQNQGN

[7] = target: T4, Sphingosine 1-phosphate receptor 4 (Homo sapiens, UniProt O95977); experiment: Late-stage fluorescence-based dose-response cell-based counterscreen assay to identify agonists of the Sphingosine 1-Phosphate Receptor 3 (S1P3): Sphingosine 1-Phosphate Receptor 4 (S1P4) agonist assay.; type: functional
T4 sequence (O95977 whole entry): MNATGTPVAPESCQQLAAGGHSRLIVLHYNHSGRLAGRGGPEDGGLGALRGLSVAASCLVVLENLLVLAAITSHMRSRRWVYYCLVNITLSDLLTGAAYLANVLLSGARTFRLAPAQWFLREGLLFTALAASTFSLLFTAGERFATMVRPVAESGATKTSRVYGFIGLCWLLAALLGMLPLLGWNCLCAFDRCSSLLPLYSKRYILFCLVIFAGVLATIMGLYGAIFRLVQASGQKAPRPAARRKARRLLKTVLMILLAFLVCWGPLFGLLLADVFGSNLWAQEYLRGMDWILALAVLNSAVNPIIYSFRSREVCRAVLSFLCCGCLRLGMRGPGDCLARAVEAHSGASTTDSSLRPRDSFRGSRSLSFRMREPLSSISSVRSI

[8] = target: Sphingosine 1-phosphate receptor 2 (Homo sapiens, UniProt O95136); experiment: Late-stage fluorescence-based dose-response cell-based counterscreen assay to identify agonists of the Sphingosine 1-Phosphate Receptor 3 (S1P3): Sphingosine 1-Phosphate Receptor 2 (S1P2) agonist assay.; type: functional
Sequence of Sphingosine 1-phosphate receptor 2 (O95136 whole entry): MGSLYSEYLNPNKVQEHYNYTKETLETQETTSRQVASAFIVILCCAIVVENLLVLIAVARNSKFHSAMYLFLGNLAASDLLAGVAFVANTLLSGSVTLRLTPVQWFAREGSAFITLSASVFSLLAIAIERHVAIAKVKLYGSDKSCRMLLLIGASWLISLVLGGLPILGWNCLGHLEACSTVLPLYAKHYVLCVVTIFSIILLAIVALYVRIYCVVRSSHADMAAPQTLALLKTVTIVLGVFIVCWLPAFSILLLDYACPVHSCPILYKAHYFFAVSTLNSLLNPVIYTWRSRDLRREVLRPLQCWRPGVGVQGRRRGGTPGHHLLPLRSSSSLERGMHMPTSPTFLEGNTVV

[9] = target: Cyclin-dependent kinase 19 (Homo sapiens, UniProt Q9BWU1); experiment: Navigating the Kinome. Panel member name: CDC2L6; type: functional
Sequence of Cyclin-dependent kinase 19 (Q9BWU1 whole entry): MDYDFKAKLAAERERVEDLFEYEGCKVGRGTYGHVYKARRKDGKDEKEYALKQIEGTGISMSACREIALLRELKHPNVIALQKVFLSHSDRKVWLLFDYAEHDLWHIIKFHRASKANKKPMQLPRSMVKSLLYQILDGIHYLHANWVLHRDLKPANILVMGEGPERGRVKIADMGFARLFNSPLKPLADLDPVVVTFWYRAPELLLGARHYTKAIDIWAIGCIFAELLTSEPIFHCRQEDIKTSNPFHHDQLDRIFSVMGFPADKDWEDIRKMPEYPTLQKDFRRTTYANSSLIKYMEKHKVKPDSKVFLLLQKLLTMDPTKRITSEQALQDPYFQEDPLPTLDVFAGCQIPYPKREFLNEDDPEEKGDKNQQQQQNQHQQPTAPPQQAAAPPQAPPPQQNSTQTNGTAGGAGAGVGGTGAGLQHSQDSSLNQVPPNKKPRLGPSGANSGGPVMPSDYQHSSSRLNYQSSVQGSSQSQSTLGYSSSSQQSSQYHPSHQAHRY

[10] = target: Cell division cycle 7-related protein kinase (Homo sapiens, UniProt O00311); type: functional;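 also: value obtained from a kinome-wide kinase panel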
Sequence of Cell division cycle 7-related protein kinase (O00311 whole entry): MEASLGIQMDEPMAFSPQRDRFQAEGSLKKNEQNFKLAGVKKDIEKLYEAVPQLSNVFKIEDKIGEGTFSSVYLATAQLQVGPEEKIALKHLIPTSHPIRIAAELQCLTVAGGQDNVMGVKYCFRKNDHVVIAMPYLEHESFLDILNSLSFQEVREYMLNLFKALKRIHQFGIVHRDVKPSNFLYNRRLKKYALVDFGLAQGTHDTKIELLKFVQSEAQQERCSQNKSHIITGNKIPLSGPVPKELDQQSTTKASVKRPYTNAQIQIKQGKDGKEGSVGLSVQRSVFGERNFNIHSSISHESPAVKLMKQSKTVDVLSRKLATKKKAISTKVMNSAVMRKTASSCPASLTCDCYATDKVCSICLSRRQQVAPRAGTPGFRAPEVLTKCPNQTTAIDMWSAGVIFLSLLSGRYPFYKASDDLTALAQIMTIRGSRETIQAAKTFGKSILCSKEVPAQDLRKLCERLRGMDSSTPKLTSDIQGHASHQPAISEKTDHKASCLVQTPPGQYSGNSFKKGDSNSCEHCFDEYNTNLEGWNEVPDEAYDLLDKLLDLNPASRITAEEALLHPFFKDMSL

With `Cn1c(=O)c([N+](=O)[O-])c(-n2cnc3ccccc32)c2ccccc21` the EC50 (Protein RecA) was 7.26 µM (active), the IC50 (Saccharomyces cerevisiae) was 72.3 µM (active) and the AC50 [1] was 69.6 µM (active). The AC50 [2] was 8.12 µM (active) and the IC50 [3] was > 100 µM (inactive).
In the case of `Cc1ccc2nc(N3CCN(Cc4nnnn4C4CCCC4)CC3)c(C#N)cc2c1`, the AC50 [4] was 4.05 µM (active).
For `Nc1nc2sc3c(c2c2nnc(SCc4ccc(Cl)cc4)n12)CCCC3`, the IC50 [5] was > 99 µM (inactive) and the IC50 [6] was > 99 µM (inactive).
In the case of `O=C(c1noc2ccccc12)N(C1CCCCC1)C1CCCCC1`, the EC50 [7] was > 50 µM (inactive) and the EC50 [8] was > 50 µM (inactive).
For `O=c1nc(-c2ccccc2)cc(-c2ccncc2)[nH]1`, the Ki [9] was > 100 µM (inactive) and the Ki [10] was 0.158 µM (active).
